Test system: rodent lifetime carcinogenesis bioassay, tumor incidence TD50
Test: chronic cancer bioassays in animals – CPDB, compiled studies (AID 1745844)
Conditions: in feed

Nc1ccc2nc3ccccn3c2n1
TD50 (mouse, strain CDF1, females, site: blood vessels, lesion: hemangioendothelial sarcoma, dosed 82 weeks, study length 82 weeks): 43 mg/kg/day | TD50 (mouse, strain CDF1, females, site: blood vessels, lesion: several types, types named in the paper, dosed 82 weeks, study length 82 weeks): 39.9 mg/kg/day | TD50 (mouse, strain CDF1, females, site: liver, lesion: hepatocellular adenoma, dosed 82 weeks, study length 82 weeks): 170 mg/kg/day | TD50 (mouse, strain CDF1, females, site: liver, lesion: hepatocellular carcinoma, dosed 82 weeks, study length 82 weeks): 20 mg/kg/day | TD50 (mouse, strain CDF1, females, site: liver, lesion: several types, types named in the paper, dosed 82 weeks, study length 82 weeks): 12 mg/kg/day | TD50 (mouse, strain CDF1, females, site: lung, lesion: adenoma, dosed 82 weeks, study length 82 weeks): 1090 mg/kg/day | TD50 (mouse, strain CDF1, males, site: blood vessels, lesion: hemangioendothelial sarcoma, dosed 84 weeks, study length 84 weeks): 27.3 mg/kg/day | TD50 (mouse, strain CDF1, males, site: blood vessels, lesion: several types, types named in the paper, dosed 84 weeks, study length 84 weeks): 23.9 mg/kg/day | TD50 (mouse, strain CDF1, males, site: liver, lesion: hepatocellular adenoma, dosed 84 weeks, study length 84 weeks): 201 mg/kg/day | TD50 (mouse, strain CDF1, males, site: liver, lesion: hepatocellular carcinoma, dosed 84 weeks, study length 84 weeks): 255 mg/kg/day | TD50 (mouse, strain CDF1, males, site: liver, lesion: several types, types named in the paper, dosed 84 weeks, study length 84 weeks): 93.2 mg/kg/day | TD50 (mouse, strain CDF1, males, site: lung, lesion: adenoma, dosed 84 weeks, study length 84 weeks): 483 mg/kg/day | TD50 (rat, strain F344/DuCrj, females, site: Zymbal's gland, lesion: squamous-cell carcinoma, dosed 104 weeks, study length 104 weeks): 94 mg/kg/day | TD50 (rat, strain F344/DuCrj, females, site: clitoral gland, lesion: one or several types, types not named, dosed 104 weeks, study length 104 weeks): 56.4 mg/kg/day | TD50 (rat, strain F344/DuCrj, females, site: colon, lesion: adenocarcinoma, dosed 104 weeks, study length 104 weeks): 351 mg/kg/day | TD50 (rat, strain F344/DuCrj, females, site: colon, lesion: adenoma, dosed 104 weeks, study length 104 weeks): 111 mg/kg/day | TD50 (rat, strain F344/DuCrj, females, site: colon, lesion: several types, types named in the paper, dosed 104 weeks, study length 104 weeks): 81.1 mg/kg/day | TD50 (rat, strain F344/DuCrj, females, site: liver, lesion: several types, types named in the paper, dosed 104 weeks, study length 104 weeks): 351 mg/kg/day | TD50 (rat, strain F344/DuCrj, females, site: small intestine, lesion: adenocarcinoma, dosed 104 weeks, study length 104 weeks): 135 mg/kg/day | TD50 (rat, strain F344/DuCrj, females, site: small intestine, lesion: adenoma, dosed 104 weeks, study length 104 weeks): 171 mg/kg/day | TD50 (rat, strain F344/DuCrj, females, site: small intestine, lesion: mucinous carcinoma, dosed 104 weeks, study length 104 weeks): 711 mg/kg/day | TD50 (rat, strain F344/DuCrj, females, site: small intestine, lesion: several types, types named in the paper, dosed 104 weeks, study length 104 weeks): 81.1 mg/kg/day | TD50 (rat, strain F344/DuCrj, males, site: Zymbal's gland, lesion: squamous-cell carcinoma, dosed 104 weeks, study length 104 weeks): 569 mg/kg/day | TD50 (rat, strain F344/DuCrj, males, site: brain, lesion: astrocytoma, dosed 104 weeks, study length 104 weeks): 281 mg/kg/day | TD50 (rat, strain F344/DuCrj, males, site: colon, lesion: adenocarcinoma, dosed 104 weeks, study length 104 weeks): 185 mg/kg/day | TD50 (rat, strain F344/DuCrj, males, site: colon, lesion: adenoma, dosed 104 weeks, study length 104 weeks): 185 mg/kg/day | TD50 (rat, strain F344/DuCrj, males, site: colon, lesion: several types, types named in the paper, dosed 104 weeks, study length 104 weeks): 88.9 mg/kg/day | TD50 (rat, strain F344/DuCrj, males, site: liver, lesion: several types, types named in the paper, dosed 104 weeks, study length 104 weeks): 52.1 mg/kg/day | TD50 (rat, strain F344/DuCrj, males, site: small intestine, lesion: adenocarcinoma, dosed 104 weeks, study length 104 weeks): 45.1 mg/kg/day | TD50 (rat, strain F344/DuCrj, males, site: small intestine, lesion: adenoma, dosed 104 weeks, study length 104 weeks): 137 mg/kg/day | TD50 (rat, strain F344/DuCrj, males, site: small intestine, lesion: mucinous carcinoma, dosed 104 weeks, study length 104 weeks): 281 mg/kg/day | TD50 (rat, strain F344/DuCrj, males, site: small intestine, lesion: several types, types named in the paper, dosed 104 weeks, study length 104 weeks): 33.8 mg/kg/day
